The results in this text go back to ChEMBL document CHEMBL1131525, “Synthesis and anti-inflammatory activity of chalcone derivatives” (Bioorg Med Chem Lett, 1998).

Assay [1] relates to Mus musculus. The assay is described as follows: In vivo inhibition of compound required for migration of neutrophils into the mouse pouch at the dose of 100 nmol/pouch. Format: functional.
Assay [2] deals with T1, Polyunsaturated fatty acid 5-lipoxygenase (Homo sapiens) (UniProt P09917).
T1 sequence (whole entry): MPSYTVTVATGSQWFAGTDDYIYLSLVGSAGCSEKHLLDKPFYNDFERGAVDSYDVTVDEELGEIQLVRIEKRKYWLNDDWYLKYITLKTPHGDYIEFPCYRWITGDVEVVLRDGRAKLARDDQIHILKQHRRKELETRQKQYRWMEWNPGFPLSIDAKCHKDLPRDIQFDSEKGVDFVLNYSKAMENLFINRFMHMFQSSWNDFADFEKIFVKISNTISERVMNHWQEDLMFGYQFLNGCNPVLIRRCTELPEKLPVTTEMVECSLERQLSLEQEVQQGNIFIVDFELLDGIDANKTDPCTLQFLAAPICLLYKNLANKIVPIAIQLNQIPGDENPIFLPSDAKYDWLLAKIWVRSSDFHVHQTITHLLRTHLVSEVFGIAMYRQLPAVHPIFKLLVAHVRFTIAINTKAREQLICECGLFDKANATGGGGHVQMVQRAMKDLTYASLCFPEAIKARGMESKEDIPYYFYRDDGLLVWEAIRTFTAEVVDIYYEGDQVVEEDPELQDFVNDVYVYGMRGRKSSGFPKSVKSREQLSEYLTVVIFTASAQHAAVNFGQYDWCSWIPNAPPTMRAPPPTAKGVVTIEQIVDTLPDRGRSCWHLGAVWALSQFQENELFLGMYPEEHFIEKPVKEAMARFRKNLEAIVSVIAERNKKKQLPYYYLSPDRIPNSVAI
The assay is described as follows: (§1) Inhibitory concentration required against 5-lipoxygenase activity in cytosolic fractions of human neutrophils. Conditions: concentration not given here.

The species entered for assay [3] is Homo sapiens. The assay is described as follows: (§2) […] required for elastase release in stimulated human neutrophils. Format: functional. Also on record: concentration or dose not given beside the values.
The species entered for assay [4] is Homo sapiens. The assay is described as follows: (§3) Inhibitory concentration required for LTB4 synthesis in stimulated human neutrophils. Format: functional, organism-based.
Assay [5] has as its system Mus musculus. The assay is described as follows: In vivo inhibition of compound required to inhibit PGE-2 levels in zymosan treated mouse air pouch at a dose of 100 nmol/pouch. Type of assay: functional.
Assay [6] deals with Mus musculus. The assay is described as follows: In vivo inhibition of compound required to inhibit TNF-alpha levels in zymosan treated mouse air pouch at a dose of 100 nmol/pouch. Format: functional.
Assay [7] deals with T2, Prostaglandin G/H synthase 2 (Homo sapiens) (UniProt P35354).
T2 sequence (whole entry): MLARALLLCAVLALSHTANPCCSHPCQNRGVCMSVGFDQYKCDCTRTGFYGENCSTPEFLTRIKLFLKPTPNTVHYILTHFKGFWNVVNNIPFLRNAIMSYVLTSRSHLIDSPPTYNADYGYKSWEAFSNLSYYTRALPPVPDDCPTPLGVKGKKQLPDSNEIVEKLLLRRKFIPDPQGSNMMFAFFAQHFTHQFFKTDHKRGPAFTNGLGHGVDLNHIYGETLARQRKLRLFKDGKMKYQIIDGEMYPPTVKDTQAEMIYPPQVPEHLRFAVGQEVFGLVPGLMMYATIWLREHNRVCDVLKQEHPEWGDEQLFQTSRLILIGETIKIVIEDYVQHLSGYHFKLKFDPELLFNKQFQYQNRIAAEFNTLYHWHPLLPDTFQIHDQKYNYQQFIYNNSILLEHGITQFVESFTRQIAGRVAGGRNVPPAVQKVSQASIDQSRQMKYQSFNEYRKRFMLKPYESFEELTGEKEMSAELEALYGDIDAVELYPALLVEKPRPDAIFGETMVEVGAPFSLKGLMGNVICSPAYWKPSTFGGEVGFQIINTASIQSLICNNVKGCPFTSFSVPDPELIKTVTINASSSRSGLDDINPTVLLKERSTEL
Kind of assay: Inhibition of COX-2 activity in intact human monocytes. Also on record: concentration or dose not given beside the values. Conditions: concentration not given here. Format: cell-based.

Assay [8] has as its system Mus musculus. The assay is described as follows: In vivo inhibition of compound required to inhibit LTB4 levels in zymosan treated mouse air pouch at a dose of 100 nmol/pouch. Type of assay: functional.
In assay [9] the target is T3, Polyunsaturated fatty acid 5-lipoxygenase (Homo sapiens, UniProt P09917).
T3 sequence (P09917 whole entry): T1 sequence (whole entry)
The description is as §1.

Assay [10] is filed under the species Homo sapiens. The description is as §2. Format: functional.
The species named for assay [11] is Homo sapiens. The description is as §3. Format: functional.
For assay [12], the target named is T3, Polyunsaturated fatty acid 5-lipoxygenase. The assay is described as follows: Inhibitory concentration required against 5-lipoxygenase activity in intact cells of human neutrophils. Type of assay: cell-based.
Assay [13] in a line: Inhibitory concentration required for scavenging of superoxide anion generated by hypoxanthine / xanthine oxidase system. Format: functional.
The species entered for assay [14] is Homo sapiens. Kind of assay: Inhibitory concentration required for scavenging of superoxide anion generated by stimulated human neutrophils. Format: functional.

What is called Inhibition is the relative decrease from the control value, in per cent. Usually inhibition stands for how much of the control response was suppressed. A word on the IC50: it is the midpoint of a concentration-inhibition curve.

In the case of `COc1cc2cc(/C=C/C(=O)c3ccc(C)cc3)c(Cl)nc2cc1OC`, the Inhibition in assay [1] came out at 38.6%; in [3], 40.7%; in assay [5], 59.5%; in assay [6], 11.2%; in assay [8] it was 15.2%. Besides, the inhibition was 61% in assay [2] and 0% in assay [7]. For the same compound, the IC50 in assay [4] was determined as 9.8 µM.

For `O=C(/C=C/c1ccco1)c1ccc(Cl)c(Cl)c1`, the Inhibition in assay [1] was 47.3%; in assay [5], 71%; in assay [6], 0%; in assay [8], 0%. Further, the concentration for half-maximal inhibition (IC50) was determined as 4.1 µM in assay [9], 4.8 µM in assay [4] and 5.4 µM in assay [10]. In [7], this compound returned an inhibition of 0%.

As for `O=C(/C=C/c1cc2ccccc2nc1Cl)c1ccc(F)cc1`, the Inhibition in assay [1] came to 36.6%; in [5], 58.3%; in assay [6] it was 0%; in assay [8], 18.5%. The IC50 was determined as 3.9 µM in assay [9], 6.2 µM in assay [4] and 3 µM in [10]. The inhibition in [7] came out at 36.3%.

In the case of `COc1cc(/C=C/C(=O)c2cc(OC)c(OC)c(OC)c2)cc(OC)c1OC`, the Inhibition is on record as 35% in assay [1]; 0% in assay [3]; 0% in assay [5]; 25.7% in assay [6]; 21.1% in [11]; 27.5% in assay [8]. For the same compound, the inhibition in assay [2] was determined as 14.6%; in assay [7], 0%.

With `COc1ccc(C(=O)/C=C/c2ccc(C(F)(F)F)cc2)c(OC)c1`, the Inhibition amounted to 0% in assay [1]; 0% in assay [3]; 25.5% in assay [5]; 0% in assay [6]; 35.4% in assay [11]; 45.9% in assay [8]. In addition, the figures for the inhibition in [2] and in assay [7] were 21.7% and 0%, respectively.

Consider `O=C(/C=C/c1cc2ccccc2nc1Cl)c1ccc(C(F)(F)F)cc1`, for which the Inhibition in assay [1] is reported as 39.7%; in assay [3] it was 0%; in assay [5], 46.5%; in assay [6], 24.5%; in assay [11], 36.9%; in [8], 13%. Besides, the figures for the inhibition in assay [2] and in assay [7] were 32.9% and 35.6%, respectively.

Regarding `COc1ccc(C(=O)/C=C/c2cc3ccccc3nc2Cl)cc1`, the Inhibition in assay [1] is on record as 20.4%; in assay [3] it was 0%; in assay [5] it was 23.2%; in assay [6] it was 0%; in assay [11], 30.2%; in assay [8] it was 20.9%. Further, the inhibition turned out to be 42.3% in [2] and 30% in [7].

As for `CCn1c(=O)ccc2cc(COc3cc(F)cc(C4(OC)CCOCC4)c3)ccc21`, the values for the IC50 in assay [9] and in [12] were 0.09 µM and 60 nM, respectively.

As for `COc1cc2cc(/C=C/C(=O)c3ccccc3)c(Cl)nc2cc1OC`, the Inhibition was determined as 0% in assay [1]; 0% in assay [3]; 29.9% in assay [5]; 35.7% in [6]; 42.2% in assay [11]; 0% in [8]. Moreover, the inhibition in assay [2] stood at 42%; in assay [7], 0%.

Regarding `COc1ccc(C(=O)/C=C/c2cc3ccccc3nc2Cl)c(OC)c1`, the Inhibition in assay [1] was found to be 0%; in assay [3] it was 0%; in assay [5] it was 36.2%; in [6], 52.1%; in assay [11], 10.7%; in [8], 11.1%. Also, the values for the inhibition in assay [2] and in assay [7] were 27.6% and 41.8%, respectively.

`Cc1coc(C)c1C(=O)/C=C/c1cc2ccccc2nc1Cl`: the Inhibition in assay [1] is 47.1%; in assay [5], 56.8%; in assay [6], 34.4%; in assay [11], 53.5%; in [8], 19.5%. Further, the half-inhibitory concentration (IC50) came to 3.5 µM in assay [9] and 8.4 µM in assay [10]. This compound also showed an inhibition in assay [7] of 0%.

As to `O=C(/C=C/c1cc2ccccc2nc1Cl)c1cccnc1`, the Inhibition was 53% in assay [1]; 0% in assay [3]; 69.5% in assay [5]; 12.1% in assay [6]; 26.4% in [11]; 30.7% in assay [8]. The values for the inhibition in assay [2] and in assay [7] were 30.2% and 46.6%, respectively.

Take `COc1ccc(C(=O)/C=C/c2ccc(N(C)C)cc2)cc1OC`: the Inhibition in assay [1] was 20.6%; in assay [3], 0%; in assay [5] it was 75.8%; in assay [6] it was 64.2%; in assay [11], 0%; in [8] it was 41.1%. Further, the inhibition in assay [2] stood at 37.9%; in assay [7] it was 0%. The IC50 in [13] was determined as 300 nM; in assay [14] it was 100 nM.

With `COc1cccc(/C=C/C(=O)c2ccc(Br)cc2)c1OC`, the Inhibition in assay [1] amounted to 35.7%; in assay [5], 62%; in assay [6] it was 44%; in assay [8], 40%. In addition, the IC50 in assay [9] stood at 6.1 µM; in [4], 6.7 µM; in assay [10] it was 2.2 µM. The same compound came in with an inhibition in assay [7] of 0%.
